Source: US9326517B2, “Synergistic combination of a chlorotoluron compound and IPBC for dry film protection” (Dow Global Technologies LLC, priority 2013, dated 2016)

Tests used:
Chlorella sp. ATCC 7516 = experiment: Algal efficacy testing of dry paint films (modified ASTM 5589, 6-well plates); type: cell-based; conditions: 3 weeks; for Total conc: total biocide concentration in paint used as minimum inhibitory concentration for SI, pass level ≧75% inhibition
Procedure: Slurries containing 33% antimicrobial active ingredient (chlorotoluron) were post added to a white, acrylic/silicone based outdoor paint free of biocides to give a total active ingredient concentration of 10000 and 1000 ppm respectively. ROCIMA™ 250 (40% IPBC) was post added to a white, acrylic/silicone based outdoor paint free of biocides to give a total active ingredient concentration of 10000 and 1000 ppm respectively. These paints were then diluted with an antimicrobial free acrylic/silicone based paint and mixed to prepare targeted concentrations of antimicrobial compounds for the testing. The total biocides concentrations tested were 125, 250, 500, 1000, 2000 and 5000 ppm. After biocides addition or dilution, the paints were mixed 90 seconds with the horse power shaker (AXEL 75M3372/Agitateur SO-10MI) until uniformity was achieved. Paints containing different antimicrobial compounds at the same levels were mixed together in order to obtain the desired ratio of antimicrobial compounds. After one day, the paints were applied to Schleicher & Schuell filter paper at 280 μm wet film thickness and dried for 3 days at room temperature avoiding direct exposure to sunlight. Square discs (1.6 cm×1.6 cm) were cut out from each panel and were used as the substrate for algal efficacy tests. This sample size allowed for an agar border when the sample disc was placed into the well of the test plate.
Algal efficacy was tested according to modified ASTM 5589 which is a standard accelerated test method for determining resistance of various coatings (including paints) to algal defacement. To accommodate for high-throughput screening, this method was scaled down from petri dishes to 6-well plates. Bold Modified Basal Freshwater Nutrient Solution was used as growth medium. A single coated filter paper coupon was placed with a pair of sterile forceps at the center of the agar plug (on top) with the painted surface facing upwards. Algal inoculum was prepared by mixing equal concentrations (1×10^6 cfu/ml) and equal volumes of exponentially growing algae cultures.
Each well that contains a tested coupon was inoculated with 1750 μl of algal suspensions (1×10^6 cfu/ml) making sure that the whole surface (paint film as well as the agar surrounding it) was evenly covered. The plates were incubated at room temp (21° C.-25° C.) with cyclic exposure to light and dark phases, for a period of three weeks. The total area inhibited was evaluated at the end of each week according to percent area covered in 5% increments.
At the end of the three week incubation period, the samples were scored for percent inhibition regarding color intensity compared to the blank sample.
The Synergy Index calculation was performed as follows.
The SI is calculated based on F. C. Kull et. […]

[1] = cited from earlier work

| Structure (SMILES) | Total conc (Chlorella sp. ATCC 7516) | inhibition at 1000 ppm (Chlorella sp. ATCC 7516; 504 h, total conc 1000 ppm in paint) | solubility in water [1] | inhibition at 2000 ppm (Chlorella sp. ATCC 7516; 504 h, total conc 2000 ppm in paint) |
| --- | --- | --- | --- | --- |
| Cc1ccc(NC(=O)N(C)C)cc1Cl [Chlorotoluron, N′-(3-chloro-4-methylphenyl)-N,N-dimethylurea] | 1000 ppm | 100% | relatively low |  |
| CCCCNC(=O)OCC#CI [IPBC, 3-Iodo-2-propynyl butylcarbamate] | 2000 ppm |  |  | 70% |
